Test results reported in publication PMC4132841 (Neuron, 2012).
pIC50: −log10 of the molar value. Where “and” joins values, the source holds several entries; their conditions need not be identical. Equal values may be shown once. Read-outs that look alike come from different tables or passages of the source.

Legend:
GluK3 [1] = target: T1, GluK3 (Rattus norvegicus, UniProt P42264); type: cell-based; settings: for effect of zinc on GluK3 currents: 100 μM zinc
GluK2 [2] = target: T2, GluK2 (Rattus norvegicus, UniProt P42260); type: cell-based; settings: 10 mM glutamate
[3] = target: heteromeric GluK2/GluK3 receptors (Rattus norvegicus, UniProt P42260+P42264); assay: Glutamate currents of heteromeric GluK2b; type: cell-based
GluK3 [4] = target: T1, GluK3; type: cell-based
GluK2 [5] = target: T2, GluK2; type: cell-based; settings: 100 μM zinc; control 3.4 ± 0.1 ms; n = 5; p = 0.20
GluK3(ERLK) = GluK3(ERLK) (Rattus norvegicus, UniProt P42264, I781L/K527E/K698R/Q785K); assay: Glutamate currents of desensitization mutant GluK3; type: cell-based; settings: 100 μM zinc
GluK3(H492C, L753C) = GluK3(H492C, L753C) (Rattus norvegicus, UniProt P42264, H523C/L784C); assay: Glutamate currents of desensitization mutant GluK3; type: cell-based; settings: 100 μM zinc; 10 mM glutamate, 100 ms
[6] = test system: extracellular domain of GluK3 and the transmembrane and intracellular segments of GluK2; assay: Whole-cell glutamate currents of chimeric receptor; type: cell-based, rat; settings: 100 μM zinc; 10 mM glutamate, 100 ms; n = 5
[7] = test system: transmembrane and intracellular segments of GluK3 and the extracellular domain of GluK2; assay: Whole-cell glutamate currents of chimeric receptor; type: cell-based, rat; settings: 100 μM zinc; 10 mM glutamate, 100 ms; n = 4
[8] = target: GluK3 subunits deleted of their ATD (Rattus norvegicus, UniProt P42264); assay: Whole-cell glutamate currents of ATD-deleted receptor; type: cell-based; settings: 100 μM zinc; 10 mM glutamate, 100 ms; n = 5
[9] = target: GluK2 receptors where the ATD was excised (Rattus norvegicus, UniProt P42260); assay: as above; type: cell-based; settings: 100 μM zinc; 10 mM glutamate, 100 ms; n = 4
GluK3/K2S2 = GluK3/K2S2 (Rattus norvegicus, UniProt P42260+P42264, A594P/A717V/A732S/D593N/D790G/E602D/E705D/F704Y/G600D/I638V/I746V/I767V/I794M/I818V/I844L/INS713R/K688E/K714R/K820N/L736F/L837F/M618V/N721S/N810S/P715Q/S620A/S803N/T729V/V569I/Y745F); assay: Whole-cell glutamate currents of S2 chimera; type: cell-based; settings: 100 μM zinc; 10 mM glutamate, 100 ms; n = 5
GluK2/K3S2 = assay: Whole-cell glutamate currents of S2 chimera; type: cell-based, rat; settings: 100 μM zinc; 10 mM glutamate, 100 ms; n = 5
GluK2(G758D) = GluK2(G758D) (Rattus norvegicus, UniProt P42260, G789D); assay: Glutamate currents of point mutant, outside-out patches; type: cell-based; settings: 100 μM zinc; 10 mM glutamate; n = 6
GluK3(D759G) = GluK3(D759G) (Rattus norvegicus, UniProt P42264, D790G); assay: as above; type: cell-based; settings: 100 μM zinc; 10 mM glutamate; n = 5
GluK3(H762A) = GluK3(H762A) (Rattus norvegicus, UniProt P42264, H793A); assay: as above; type: cell-based; settings: 100 μM zinc; 10 mM glutamate; n = 5
GluK3(H492Y) = GluK3(H492Y) (Rattus norvegicus, UniProt P42264, H523Y); assay: Glutamate currents of point mutant; type: cell-based; settings: 100 μM zinc; 10 mM glutamate
GluK3(H492A) = GluK3(H492A) (Rattus norvegicus, UniProt P42264, H523A); assay: Glutamate currents of point mutant; type: cell-based; settings: 100 μM zinc; 10 mM glutamate
GluK2(Y490H) = GluK2(Y490H) (Rattus norvegicus, UniProt P42260, Y521H); assay: Glutamate currents of point mutant; type: cell-based; settings: 100 μM zinc; 10 mM glutamate
GluK3(D730A) = GluK3(D730A) (Rattus norvegicus, UniProt P42264, D761A); assay: Glutamate currents of point mutant, outside-out patches; type: cell-based; settings: 100 μM zinc; 10 mM glutamate; n = 6
GluK3(D730N) = GluK3(D730N) (Rattus norvegicus, UniProt P42264, D761N); assay: as above; type: cell-based; settings: 100 μM zinc; 10 mM glutamate
GluK2b and GluK3(D730A) = GluK2b and GluK3(D730A) (Rattus norvegicus, UniProt P42260+P42264, D761A); assay: Glutamate currents of heteromeric mutant receptors, 1 μM UBP310 present; type: cell-based; settings: 100 μM zinc, 10 mM glutamate
GluK2b(D729A) and GluK3 = GluK2b(D729A) and GluK3 (Rattus norvegicus, UniProt P42260+P42264, D760A); assay: Glutamate currents of heteromeric mutant receptors; type: cell-based; settings: 10 mM glutamate
[10] = test system: KARs containing GluK4 or GluK5 subunits; settings: read-out: IC50 of zinc inhibition; ref Mott et al., 2008; cited from earlier work
GluK1-GluK2 = settings: read-out: IC50 of zinc inhibition; ref Mott et al., 2008; cited from earlier work
GluN1/GluN2A receptors = settings: ref Paoletti et al., 1997; cited from earlier work
GluN1/GluN2B = settings: ref Paoletti et al., 1997; cited from earlier work
GluK2b(Q) and GluK3 = GluK2b(Q) and GluK3 (Rattus norvegicus, UniProt P42264); assay: Glutamate-activated currents in HEK293 cells cotransfected with GluK2b; type: cell-based; settings: 1 μM UBP310; n = 6
[11] = combined potentiation/inhibition Hill equations

T1 sequence (P42264 32-919): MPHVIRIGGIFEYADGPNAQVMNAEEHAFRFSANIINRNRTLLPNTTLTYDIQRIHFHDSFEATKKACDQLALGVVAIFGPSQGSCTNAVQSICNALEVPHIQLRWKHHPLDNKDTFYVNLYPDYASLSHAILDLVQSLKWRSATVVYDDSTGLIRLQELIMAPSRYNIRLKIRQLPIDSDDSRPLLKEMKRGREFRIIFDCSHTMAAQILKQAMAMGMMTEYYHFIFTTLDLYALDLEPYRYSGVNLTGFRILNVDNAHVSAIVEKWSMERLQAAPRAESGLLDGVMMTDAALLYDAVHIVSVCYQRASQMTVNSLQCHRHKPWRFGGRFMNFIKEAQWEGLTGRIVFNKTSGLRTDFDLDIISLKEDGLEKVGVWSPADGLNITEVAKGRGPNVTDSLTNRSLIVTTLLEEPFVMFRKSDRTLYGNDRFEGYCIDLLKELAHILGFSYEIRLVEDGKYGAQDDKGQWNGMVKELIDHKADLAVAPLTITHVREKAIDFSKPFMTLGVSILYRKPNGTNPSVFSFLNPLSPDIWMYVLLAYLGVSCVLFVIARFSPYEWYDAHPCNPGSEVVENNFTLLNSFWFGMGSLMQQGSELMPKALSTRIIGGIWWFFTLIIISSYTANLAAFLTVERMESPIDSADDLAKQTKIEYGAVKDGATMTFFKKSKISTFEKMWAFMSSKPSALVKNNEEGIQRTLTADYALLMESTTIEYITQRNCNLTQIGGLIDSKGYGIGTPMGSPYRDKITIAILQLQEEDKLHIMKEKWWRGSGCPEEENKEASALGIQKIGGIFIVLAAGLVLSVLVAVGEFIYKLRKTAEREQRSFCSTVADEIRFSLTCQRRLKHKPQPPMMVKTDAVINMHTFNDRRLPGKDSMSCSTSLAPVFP
Sequence of GluK3(ERLK) (P42264 32-919 K527E/K698R/I781L/Q785K): as the sequence (P42264 32-919) above, with K496E, K667R, I750L, Q754K counted along it
Sequence of GluK3(H492C, L753C) (P42264 32-919 H523C/L784C): as the sequence (P42264 32-919) above, with H492C, L753C counted along it
Sequence of GluK3(D730N) (P42264 32-919 D761N): as the sequence (P42264 32-919) above, with D730N counted along it
Sequence of GluK3(D759G) (P42264 32-919 D790G): as the sequence (P42264 32-919) above, with D759G counted along it
Sequence of GluK3(H492Y) (P42264 32-919 H523Y): as the sequence (P42264 32-919) above, with H492Y counted along it
Sequence of GluK3(H492A) (P42264 32-919 H523A): as the sequence (P42264 32-919) above, with H492A counted along it
Sequence of GluK2b(Q) and GluK3 (P42264 32-919): as the sequence (P42264 32-919) above
Sequence of GluK3(H762A) (P42264 32-919 H793A): as the sequence (P42264 32-919) above, with H762A counted along it
Sequence of GluK3 subunits deleted of their ATD (P42264 376-919, stated change not applied): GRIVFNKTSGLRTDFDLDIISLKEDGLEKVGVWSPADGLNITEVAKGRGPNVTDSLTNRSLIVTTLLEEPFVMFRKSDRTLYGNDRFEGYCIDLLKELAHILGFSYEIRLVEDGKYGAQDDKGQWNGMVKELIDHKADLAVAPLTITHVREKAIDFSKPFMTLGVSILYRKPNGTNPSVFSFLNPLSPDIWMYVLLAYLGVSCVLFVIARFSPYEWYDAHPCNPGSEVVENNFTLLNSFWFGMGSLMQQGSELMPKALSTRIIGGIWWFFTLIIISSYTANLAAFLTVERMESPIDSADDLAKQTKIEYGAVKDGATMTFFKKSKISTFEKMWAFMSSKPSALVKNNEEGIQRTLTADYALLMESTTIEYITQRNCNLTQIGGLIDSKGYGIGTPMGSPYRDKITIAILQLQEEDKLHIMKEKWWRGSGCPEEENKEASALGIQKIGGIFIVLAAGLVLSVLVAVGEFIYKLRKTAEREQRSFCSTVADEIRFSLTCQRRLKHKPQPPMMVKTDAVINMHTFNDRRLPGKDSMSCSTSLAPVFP
Sequence of GluK3(D730A) (P42264 32-919 D761A): as the sequence (P42264 32-919) above, with D730A counted along it

[Cl-].[Cl-].[Zn+2] [zinc, ZnCl2]
current amplitude with zinc, % of control amplitude (GluK3 [1]; 100 μM zinc preapplied, 10 mM glutamate, 100 ms, whole-cell, n = 17): 193% ± 38%
effect of zinc on GluK3 currents (GluK3 [1]; pH 6.8): inhibited
effect of zinc on GluK3 currents (GluK3 [1]; pH 8.3): potentiated
zinc concentrations that clearly inhibit currents (GluK3 [1]; WT GluK3 receptors): above 300 μM
maximal potentiation of GluK3 currents by zinc (GluK3 [1]; [11]): 475% ± 47%
nH of zinc potentiation of GluK3 currents (GluK3 [1]; [11]): 1.82 ± 0.95
zinc concentrations that potentiate glutamate currents (GluK3 [1]; homomeric and heteromeric KARs containing GluK3): 10 to 100 µM
effect of zinc on GluK3-mediated currents (GluK3 [1]; simultaneous application of zinc and glutamate, data not shown): does not potentiate
Hill coefficient (nH) of zinc inhibition of GluK2 currents (GluK2 [2]): 1.1 and 1.1 ± 0.1
UBP310-resistant current with zinc, % of control ([3]; 100 μM zinc, 10 mM glutamate, 1 μM UBP310, n = 18): 157% ± 7%
maximal potentiation by zinc, % of control ([3]; 10 mM glutamate, Hill fit): 286%
nH of zinc potentiation of GluK2/GluK3 currents ([3]; 10 mM glutamate, Hill fit): 0.6 and 0.6 ± 0.4
inhibition of GluK2/GluK3 currents by high zinc ([3]; zinc concentrations up to 1 mM): no inhibition
τdes (current decay) with zinc (GluK3 [4]; 100 μM zinc, 10 mM glutamate, 100 ms, control 5.0 ± 0.2 ms, n = 8): 9.8 ± 0.4 ms
time for half-recovery from desensitization with zinc (GluK3 [4]; 100 μM zinc, absence of zinc 902 ± 1.1 ms, n = 5): 460 ± 1.2 ms
deactivation kinetics with zinc (GluK3 [4]; 1 ms pulses of 10 mM glutamate, control 1.5 ± 0.05 ms, n = 4): 2.3 ± 0.1 ms
current amplitude with zinc, % of control amplitude (GluK3 [4]; 1 ms pulses of 10 mM glutamate, n = 4): 191% ± 22%
τdes (current decay) with zinc (GluK2 [5]): 3.7 ± 0.1 ms
effect of zinc on desensitization rate (GluK3(ERLK)): no change
effect of zinc on glutamate currents (GluK3(ERLK); 10 mM glutamate, 100 ms): inhibited rather than potentiated
effect of zinc on glutamate currents (GluK3(H492C, L753C)): inhibited
current amplitude with zinc, % of control amplitude [6]: 175% ± 9%
current with zinc (inhibited), % [7]: 40% ± 8%
current with zinc (potentiation), % [8]: 186% ± 13%
current with zinc (inhibition), % [9]: 44% ± 11%
current with zinc (inhibited), % (GluK3/K2S2): 54% ± 6%
current with zinc (facilitated), % (GluK2/K3S2): 197% ± 9%
current amplitude with zinc, % of control amplitude (GluK2(G758D)): 177% ± 7%
current with zinc (inhibited), % (GluK3(D759G)): 32% ± 9%
peak amplitude with zinc, % (GluK3(H762A)): 45% ± 6%
effect of zinc on glutamate currents (GluK3(H492Y)): still potentiated
effect of zinc on glutamate currents (GluK3(H492A)): still potentiated
effect of zinc on glutamate currents (GluK2(Y490H)): inhibited
current amplitude with zinc, % of control amplitude (GluK3(D730A)): 33% ± 2%
effect of zinc on glutamate currents (GluK3(D730N)): retained zinc potentiation
effect of zinc on glutamate currents (GluK2b and GluK3(D730A)): potentiation
effect of zinc on glutamate currents (GluK2b(D729A) and GluK3): did not potentiate
pIC50 [10]: 5.70 to 6.00
pIC50 (GluK1-GluK2): ~4.15
affinity of zinc inhibition of NMDAR function (GluN1/GluN2A receptors): low nanomolar
affinity of zinc inhibition of NMDAR function (GluN1/GluN2B): low micromolar

Cc1cn(C[C@H](N)C(=O)O)c(=O)n(Cc2ccsc2C(=O)O)c1=O [UBP310]
inhibition of glutamate-activated currents (GluK2b(Q) and GluK3): 55%
